Results published in PubChem BioAssay AID2060496 (Molecular Pharmacology Branch, DTP, NCI, 2025).

Tested on: 276233-004-R-J1-PDC complex spheroid viability
Assay: Anticancer human tumor 276233-004-R-J1-PDC patient-derived colon adenocarcinoma cell line growth inhibition [GQUAD]
Conditions: for IC50: curve of first compound; for viability, T/C: stronger effect = lower value
Procedure, shortened: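 Multi-cell-type spheroids of tumor cells with HUVEC and mesenchymal stem cells, treated with drug combinations. Concentrations descend in half-log steps from near clinical Cmax, or from 10 microM where Cmax is unknown; viability read-out.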

[1] = second compound 0.0316 µM, first compound 0.0316 µM
[2] = second compound 0.0316 µM, first compound 0.1 µM
[3] = second compound 0.0316 µM, first compound 0.316 µM
[4] = second compound 0.0316 µM, first compound 1 µM
[5] = second compound 0.0316 µM, first compound 3.16 µM
[6] = second compound 0.0316 µM, first compound 10 µM
[7] = second compound 0.1 µM, first compound 0.0316 µM
[8] = second compound 0.1 µM, first compound 0.1 µM
[9] = second compound 0.1 µM, first compound 0.316 µM
[10] = second compound 0.1 µM, first compound 1 µM
[11] = second compound 0.1 µM, first compound 3.16 µM
[12] = second compound 0.1 µM, first compound 10 µM
[13] = second compound 0.316 µM, first compound 0.0316 µM
[14] = second compound 0.316 µM, first compound 0.1 µM
[15] = second compound 0.316 µM, first compound 0.316 µM
[16] = second compound 0.316 µM, first compound 1 µM
[17] = second compound 0.316 µM, first compound 3.16 µM
[18] = second compound 0.316 µM, first compound 10 µM
[19] = second compound 1 µM, first compound 0.0316 µM
[20] = second compound 1 µM, first compound 0.1 µM
[21] = second compound 1 µM, first compound 0.316 µM
[22] = second compound 1 µM, first compound 1 µM
[23] = second compound 1 µM, first compound 3.16 µM
[24] = second compound 1 µM, first compound 10 µM
[25] = second compound 3.16 µM, first compound 0.0316 µM
[26] = second compound 3.16 µM, first compound 0.1 µM
[27] = second compound 3.16 µM, first compound 0.316 µM
[28] = second compound 3.16 µM, first compound 1 µM
[29] = second compound 3.16 µM, first compound 3.16 µM
[30] = second compound 3.16 µM, first compound 10 µM
[31] = second compound 10 µM, first compound 0.0316 µM
[32] = second compound 10 µM, first compound 0.1 µM
[33] = second compound 10 µM, first compound 0.316 µM
[34] = second compound 10 µM, first compound 1 µM
[35] = second compound 10 µM, first compound 3.16 µM
[36] = second compound 10 µM, first compound 10 µM
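Further: spheroids exposed to drugs for seven days.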
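Wherever viability, T/C is given: 100% = DMSO vehicle control viability.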

CC1COCCN1c1cc(C2(O)CC3CCC(C2)O3)c2cnn(-c3ccn[nH]3)c2n1 (centres undefined) + Cc1[nH]c2ccc(F)cc2c1-c1nc2c3cccnc3c3ncccc3c2[nH]1
IC50 (second compound 0.0316 µM): > 10 µM
IC50 (second compound 0.1 µM): 3.11 µM
IC50 (second compound 0.316 µM): 2.61 µM
IC50 (second compound 1 µM): 0.665 µM
IC50 (second compound 3.16 µM): 0.0712 µM
IC50 (second compound 10 µM): < 0.0316 µM
viability, T/C [1]: 91%
viability, T/C [2]: 68%
viability, T/C [3]: 79%
viability, T/C [4]: 72.5%
viability, T/C [5]: 55.6%
viability, T/C [6]: 51%
viability, T/C [7]: 74.6%
viability, T/C [8]: 87%
viability, T/C [9]: 74.8%
viability, T/C [10]: 60.4%
viability, T/C [11]: 52.8%
viability, T/C [12]: 44.5%
viability, T/C [13]: 87.2%
viability, T/C [14]: 76.1%
viability, T/C [15]: 57.4%
viability, T/C [16]: 62.7%
viability, T/C [17]: 54%
viability, T/C [18]: 36%
viability, T/C [19]: 60.4%
viability, T/C [20]: 70%
viability, T/C [21]: 65.6%
viability, T/C [22]: 41.7%
viability, T/C [23]: 39.6%
viability, T/C [24]: 27.9%
viability, T/C [25]: 51.4%
viability, T/C [26]: 50.9%
viability, T/C [27]: 43.2%
viability, T/C [28]: 36%
viability, T/C [29]: 33.2%
viability, T/C [30]: 26.2%
viability, T/C [31]: 46.3%
viability, T/C [32]: 44.3%
viability, T/C [33]: 42.5%
viability, T/C [34]: 35.9%
viability, T/C [35]: 26.7%
viability, T/C [36]: 21.6%

O=c1[nH]cc(F)c(=O)[nH]1 + Cc1[nH]c2ccc(F)cc2c1-c1nc2c3cccnc3c3ncccc3c2[nH]1
IC50 (second compound 0.0316 µM): > 10 µM
IC50 (second compound 0.1 µM): > 10 µM
IC50 (second compound 0.316 µM): > 10 µM
IC50 (second compound 1 µM): > 10 µM
IC50 (second compound 3.16 µM): > 10 µM
IC50 (second compound 10 µM): < 0.0316 µM
viability, T/C [1]: 71.4%
viability, T/C [2]: 85.6%
viability, T/C [3]: 92.9%
viability, T/C [4]: 76.8%
viability, T/C [5]: 77.5%
viability, T/C [6]: 100%
viability, T/C [7]: 79.3%
viability, T/C [8]: 97.2%
viability, T/C [9]: 88.9%
viability, T/C [10]: 82.7%
viability, T/C [11]: 83%
viability, T/C [12]: 80%
viability, T/C [13]: 75.7%
viability, T/C [14]: 91.2%
viability, T/C [15]: 80.4%
viability, T/C [16]: 94%
viability, T/C [17]: 74.5%
viability, T/C [18]: 85.3%
viability, T/C [19]: 57.3%
viability, T/C [20]: 63%
viability, T/C [21]: 73.1%
viability, T/C [22]: 65.6%
viability, T/C [23]: 70.8%
viability, T/C [24]: 73.3%
viability, T/C [25]: 54.6%
viability, T/C [26]: 49.9%
viability, T/C [27]: 48.5%
viability, T/C [28]: 48%
viability, T/C [29]: 53.8%
viability, T/C [30]: 51.9%
viability, T/C [31]: 41.2%
viability, T/C [32]: 46.7%
viability, T/C [33]: 43.2%
viability, T/C [34]: 44.5%
viability, T/C [35]: 45.3%
viability, T/C [36]: 42.9%
